Source: patent publication US9790178B2, “Pyrrolidinyl urea, thiourea, guanidine and cyanoguanidine compounds as TrkA kinase inhibitors” (Array BioPharma Inc., priority 2012, dated 2017)

What was measured:
[1] = target: T1, His-tagged recombinant human TrkA (Homo sapiens, UniProt P04629); assay: TrkA LanthaScreen Eu Kinase Binding Assay; settings: averaged IC50 values; read-out: TrkA enzyme IC50
T1 construct: 6HIS tagged cytoplasmic domain from Invitrogen, Catalog No. PV3144; purchased Invitrogen PV3144
Protocol: TrkA binding activity was determined in a TrkA LanthaScreen™ Eu Kinase Binding Assay. 5 nM His-tagged recombinant human TrkA (6HIS tagged cytoplasmic domain from Invitrogen, Catalog No. PV3144) was incubated with 4 nM Alexa-Fluor® Tracer 236 (Invitrogen Cat. No. PV5592), 2 nM biotinylated anti-His (Invitrogen Cat. No. PV6090), and 2 nM europium-labeled Streptavidin (Invitrogen Cat. No. PV5899), in buffer (25 mM MOPS, pH 7.5, 5 mM MgCl2, 0.005% Triton X-100). Three fold serial dilutions of compounds of the invention in DMSO were added to a final percentage of 2% DMSO. After 60-minute incubation at 22° C., the reaction was measured using the EnVision mutlimode plate reader (PerkinElmer) via TR-FRET dual wavelength detection at […]. The percent of control was calculated using a ratiometric emission factor. The IC50 values were determined by fitting a four parameter model to the percent of control data.
Table A provides averaged IC50 values for compounds of the invention when tested in the assay of Example A, where A represents an averaged IC50 value <100 nM; and B represents an averaged IC50 value from 100 to 1,000 nM.

DMPK = target: T2, DMPK (Homo sapiens, UniProt Q09013); assay: KinaseProfiler off-target kinase profiling; assay type: biochemical; settings: 10 μM, ATP near Km
T2 construct: purchased Millipore, Inc. (KinaseProfiler service)
Protocol: (§1) A representative compound of the invention (Example 20) was tested for off-target kinase activity at a concentration of 10 μM by Millipore, Inc. in their KinaseProfiler™ service against all the kinases available in their full kinase panel. The compound was run in duplicate at a concentration of ATP near the Km for each individual kinase according to Millipore's specifications. The results are shown in Table B. Data are reported as percent of control (POC) and are the average of the two replicates.

CK1gamma2 = target: T3, CK1gamma2 (Homo sapiens, UniProt P78368); assay: KinaseProfiler off-target kinase profiling; assay type: biochemical; settings: 10 μM, ATP near Km
T3 construct: purchased Millipore, Inc. (KinaseProfiler service)
Protocol: as §1

PKCbetaII = target: T4, PKCbetaII (Homo sapiens, UniProt P05771); assay: KinaseProfiler off-target kinase profiling; assay type: biochemical; settings: 10 μM, ATP near Km
T4 construct: purchased Millipore, Inc. (KinaseProfiler service)
Protocol: as §1

HIPK2 = target: T5, HIPK2 (Homo sapiens, UniProt Q9H2X6); assay: KinaseProfiler off-target kinase profiling; assay type: biochemical; settings: 10 μM, ATP near Km
T5 construct: purchased Millipore, Inc. (KinaseProfiler service)
Protocol: as §1

eEF-2K = target: T6, eEF-2K (Homo sapiens, UniProt O00418); assay: KinaseProfiler off-target kinase profiling; assay type: biochemical; settings: 10 μM, ATP near Km
T6 construct: purchased Millipore, Inc. (KinaseProfiler service)
Protocol: as §1

GSK3beta = target: T7, GSK3beta (Homo sapiens, UniProt P49841); assay: KinaseProfiler off-target kinase profiling; assay type: biochemical; settings: 10 μM, ATP near Km
T7 construct: purchased Millipore, Inc. (KinaseProfiler service)
Protocol: as §1

DAPK3 = target: T8, DAPK3 (Homo sapiens, UniProt O43293); assay: KinaseProfiler off-target kinase profiling; assay type: biochemical; settings: 10 μM, ATP near Km
T8 construct: purchased Millipore, Inc. (KinaseProfiler service)
Protocol: as §1

Flt3 = target: T9, Flt3 (Homo sapiens, UniProt P36888); assay: KinaseProfiler off-target kinase profiling; assay type: biochemical; settings: 10 μM, ATP near Km
T9 construct: purchased Millipore, Inc. (KinaseProfiler service)
Protocol: as §1

PAK6 = target: T10, PAK6 (Homo sapiens, UniProt Q9NQU5); assay: KinaseProfiler off-target kinase profiling; assay type: biochemical; settings: 10 μM, ATP near Km
T10 construct: purchased Millipore, Inc. (KinaseProfiler service)
Protocol: as §1

ULK2 = target: T11, ULK2 (Homo sapiens, UniProt Q8IYT8); assay: KinaseProfiler off-target kinase profiling; assay type: biochemical; settings: 10 μM, ATP near Km
T11 construct: purchased Millipore, Inc. (KinaseProfiler service)
Protocol: as §1

PAK5 = target: T12, PAK5 (Homo sapiens, UniProt Q9P286); assay: KinaseProfiler off-target kinase profiling; assay type: biochemical; settings: 10 μM, ATP near Km
T12 construct: purchased Millipore, Inc. (KinaseProfiler service)
Protocol: as §1

GRK7 = target: T13, GRK7 (Homo sapiens, UniProt Q8WTQ7); assay: KinaseProfiler off-target kinase profiling; assay type: biochemical; settings: 10 μM, ATP near Km
T13 construct: purchased Millipore, Inc. (KinaseProfiler service)
Protocol: as §1

BTK = target: T14, BTK (Homo sapiens, UniProt Q06187); assay: KinaseProfiler off-target kinase profiling; assay type: biochemical; settings: 10 μM, ATP near Km
T14 construct: purchased Millipore, Inc. (KinaseProfiler service)
Protocol: as §1

mTOR = target: T15, mTOR (Homo sapiens, UniProt P42345); assay: KinaseProfiler off-target kinase profiling; assay type: biochemical; settings: 10 μM, ATP near Km
T15 construct: purchased Millipore, Inc. (KinaseProfiler service)
Protocol: as §1

AKT3 = target: T16, AKT3 (Homo sapiens, UniProt Q9Y243); assay: KinaseProfiler off-target kinase profiling; assay type: biochemical; settings: 10 μM, ATP near Km
T16 construct: purchased Millipore, Inc. (KinaseProfiler service)
Protocol: as §1

TLK2 = target: T17, TLK2 (Homo sapiens, UniProt Q86UE8); assay: KinaseProfiler off-target kinase profiling; assay type: biochemical; settings: 10 μM, ATP near Km
T17 construct: purchased Millipore, Inc. (KinaseProfiler service)
Protocol: as §1

PKCtheta = target: T18, PKCtheta (Homo sapiens, UniProt Q04759); assay: KinaseProfiler off-target kinase profiling; assay type: biochemical; settings: 10 μM, ATP near Km
T18 construct: purchased Millipore (KinaseProfiler service)
Protocol: as §1

FGFR1 = target: T19, FGFR1 (Homo sapiens, UniProt P11362); assay: KinaseProfiler off-target kinase profiling; assay type: biochemical; settings: 10 μM, ATP near Km
T19 construct: purchased Millipore, Inc. (KinaseProfiler service)
Protocol: as §1

AKT1 = target: T20, AKT1 (Homo sapiens, UniProt P31749); assay: KinaseProfiler off-target kinase profiling; assay type: biochemical; settings: 10 μM, ATP near Km
T20 construct: purchased Millipore, Inc. (KinaseProfiler service)
Protocol: as §1

IGF-1R Activated = target: T21, IGF-1R Activated (Homo sapiens, UniProt P08069); assay: KinaseProfiler off-target kinase profiling; assay type: biochemical; settings: 10 μM, ATP near Km
T21 construct: purchased Millipore, Inc. (KinaseProfiler service)
Protocol: as §1

MEK1 = target: T22, MEK1 (Homo sapiens, UniProt Q02750); assay: KinaseProfiler off-target kinase profiling; assay type: biochemical; settings: 10 μM, ATP near Km
T22 construct: purchased Millipore, Inc. (KinaseProfiler service)
Protocol: as §1

DCAMKL2 = target: T23, DCAMKL2 (Homo sapiens, UniProt Q8N568); assay: KinaseProfiler off-target kinase profiling; assay type: biochemical; settings: 10 μM, ATP near Km
T23 construct: purchased Millipore, Inc. (KinaseProfiler service)
Protocol: as §1

MKK4_m = target: T24, MKK4_m (Mus musculus, UniProt P47809); assay: KinaseProfiler off-target kinase profiling; assay type: biochemical; settings: 10 μM, ATP near Km
T24 construct: purchased Millipore, Inc. (KinaseProfiler service)
Protocol: as §1

Haspin = target: T25, Haspin (Homo sapiens, UniProt Q8TF76); assay: KinaseProfiler off-target kinase profiling; assay type: biochemical; settings: 10 μM, ATP near Km
T25 construct: purchased Millipore, Inc. (KinaseProfiler service)
Protocol: as §1

EphA2 = target: T26, EphA2 (Homo sapiens, UniProt P29317); assay: KinaseProfiler off-target kinase profiling; assay type: biochemical; settings: 10 μM, ATP near Km
T26 construct: purchased Millipore, Inc. (KinaseProfiler service)
Protocol: as §1

SRC = target: T27, SRC (Homo sapiens, UniProt P12931); assay: KinaseProfiler off-target kinase profiling; assay type: biochemical; settings: 10 μM, ATP near Km
T27 construct: purchased Millipore, Inc. (KinaseProfiler service)
Protocol: as §1

CDK7/cyclinH/MAT1 = target: T28, CDK7/cyclinH/MAT1 (Homo sapiens, UniProt P50613); assay: KinaseProfiler off-target kinase profiling; assay type: biochemical; settings: 10 μM, ATP near Km
T28 construct: purchased Millipore, Inc. (KinaseProfiler service)
Protocol: as §1

GRK5 = target: T29, GRK5 (Homo sapiens, UniProt P34947); assay: KinaseProfiler off-target kinase profiling; assay type: biochemical; settings: 10 μM, ATP near Km
T29 construct: purchased Millipore, Inc. (KinaseProfiler service)
Protocol: as §1

LKB1 = target: T30, LKB1 (Homo sapiens, UniProt Q15831); assay: KinaseProfiler off-target kinase profiling; assay type: biochemical; settings: 10 μM, ATP near Km
T30 construct: purchased Millipore, Inc. (KinaseProfiler service)
Protocol: as §1

VRK2 = target: T31, VRK2 (Homo sapiens, UniProt Q86Y07); assay: KinaseProfiler off-target kinase profiling; assay type: biochemical; settings: 10 μM, ATP near Km
T31 construct: purchased Millipore, Inc. (KinaseProfiler service)
Protocol: as §1

PAK3 = target: T32, PAK3 (Homo sapiens, UniProt O75914); assay: KinaseProfiler off-target kinase profiling; assay type: biochemical; settings: 10 μM, ATP near Km
T32 construct: purchased Millipore, Inc. (KinaseProfiler service)
Protocol: as §1

ROCK-II = target: T33, ROCK-II (Homo sapiens, UniProt O75116); assay: KinaseProfiler off-target kinase profiling; assay type: biochemical; settings: 10 μM, ATP near Km
T33 construct: purchased Millipore (KinaseProfiler service)
Protocol: as §1

T25 sequence (Q8TF76 whole entry): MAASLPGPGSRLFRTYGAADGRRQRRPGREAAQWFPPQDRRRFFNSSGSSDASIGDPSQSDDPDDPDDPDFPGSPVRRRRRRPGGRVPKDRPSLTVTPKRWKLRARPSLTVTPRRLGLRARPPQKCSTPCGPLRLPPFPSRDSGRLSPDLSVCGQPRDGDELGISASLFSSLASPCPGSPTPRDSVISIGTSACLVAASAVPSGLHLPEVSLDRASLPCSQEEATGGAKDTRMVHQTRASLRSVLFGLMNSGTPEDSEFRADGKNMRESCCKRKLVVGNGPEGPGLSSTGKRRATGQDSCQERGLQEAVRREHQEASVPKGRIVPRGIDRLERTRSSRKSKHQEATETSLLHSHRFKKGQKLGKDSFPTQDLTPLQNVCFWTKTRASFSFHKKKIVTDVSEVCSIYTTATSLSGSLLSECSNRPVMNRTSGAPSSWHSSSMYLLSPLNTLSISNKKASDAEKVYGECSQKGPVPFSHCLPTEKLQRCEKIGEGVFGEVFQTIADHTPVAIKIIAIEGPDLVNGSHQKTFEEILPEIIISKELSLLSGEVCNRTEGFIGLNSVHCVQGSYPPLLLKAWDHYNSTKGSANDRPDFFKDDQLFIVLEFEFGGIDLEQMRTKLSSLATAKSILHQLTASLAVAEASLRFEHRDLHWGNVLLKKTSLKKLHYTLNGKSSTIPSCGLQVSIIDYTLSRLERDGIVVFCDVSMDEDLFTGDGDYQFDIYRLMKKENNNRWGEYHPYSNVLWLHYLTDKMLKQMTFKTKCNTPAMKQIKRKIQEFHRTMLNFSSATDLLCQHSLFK
T26 sequence (P29317 24-976): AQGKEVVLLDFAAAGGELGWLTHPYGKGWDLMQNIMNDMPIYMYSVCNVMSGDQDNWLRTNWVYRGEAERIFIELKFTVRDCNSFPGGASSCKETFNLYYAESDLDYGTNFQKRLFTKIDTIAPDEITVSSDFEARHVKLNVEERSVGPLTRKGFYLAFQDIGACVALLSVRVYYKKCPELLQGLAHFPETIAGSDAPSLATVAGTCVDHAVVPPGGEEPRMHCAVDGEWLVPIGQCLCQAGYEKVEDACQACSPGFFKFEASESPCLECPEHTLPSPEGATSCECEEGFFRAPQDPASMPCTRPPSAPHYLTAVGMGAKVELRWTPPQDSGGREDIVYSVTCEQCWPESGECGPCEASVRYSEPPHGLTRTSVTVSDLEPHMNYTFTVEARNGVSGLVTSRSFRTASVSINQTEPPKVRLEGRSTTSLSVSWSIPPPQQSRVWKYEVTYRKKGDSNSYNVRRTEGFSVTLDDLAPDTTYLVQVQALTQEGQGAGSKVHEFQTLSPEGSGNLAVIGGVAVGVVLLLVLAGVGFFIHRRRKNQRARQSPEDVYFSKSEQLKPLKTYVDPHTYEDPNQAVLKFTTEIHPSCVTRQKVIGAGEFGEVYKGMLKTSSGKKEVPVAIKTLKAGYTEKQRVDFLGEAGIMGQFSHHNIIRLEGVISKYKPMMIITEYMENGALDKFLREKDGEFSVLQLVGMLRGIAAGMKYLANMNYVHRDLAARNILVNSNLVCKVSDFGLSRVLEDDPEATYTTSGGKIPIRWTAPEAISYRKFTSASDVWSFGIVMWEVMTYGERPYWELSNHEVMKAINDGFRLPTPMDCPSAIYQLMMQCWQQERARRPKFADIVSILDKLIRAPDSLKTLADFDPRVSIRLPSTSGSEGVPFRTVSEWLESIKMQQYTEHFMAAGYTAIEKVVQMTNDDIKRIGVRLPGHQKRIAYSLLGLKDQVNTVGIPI
T5 sequence (Q9H2X6 whole entry): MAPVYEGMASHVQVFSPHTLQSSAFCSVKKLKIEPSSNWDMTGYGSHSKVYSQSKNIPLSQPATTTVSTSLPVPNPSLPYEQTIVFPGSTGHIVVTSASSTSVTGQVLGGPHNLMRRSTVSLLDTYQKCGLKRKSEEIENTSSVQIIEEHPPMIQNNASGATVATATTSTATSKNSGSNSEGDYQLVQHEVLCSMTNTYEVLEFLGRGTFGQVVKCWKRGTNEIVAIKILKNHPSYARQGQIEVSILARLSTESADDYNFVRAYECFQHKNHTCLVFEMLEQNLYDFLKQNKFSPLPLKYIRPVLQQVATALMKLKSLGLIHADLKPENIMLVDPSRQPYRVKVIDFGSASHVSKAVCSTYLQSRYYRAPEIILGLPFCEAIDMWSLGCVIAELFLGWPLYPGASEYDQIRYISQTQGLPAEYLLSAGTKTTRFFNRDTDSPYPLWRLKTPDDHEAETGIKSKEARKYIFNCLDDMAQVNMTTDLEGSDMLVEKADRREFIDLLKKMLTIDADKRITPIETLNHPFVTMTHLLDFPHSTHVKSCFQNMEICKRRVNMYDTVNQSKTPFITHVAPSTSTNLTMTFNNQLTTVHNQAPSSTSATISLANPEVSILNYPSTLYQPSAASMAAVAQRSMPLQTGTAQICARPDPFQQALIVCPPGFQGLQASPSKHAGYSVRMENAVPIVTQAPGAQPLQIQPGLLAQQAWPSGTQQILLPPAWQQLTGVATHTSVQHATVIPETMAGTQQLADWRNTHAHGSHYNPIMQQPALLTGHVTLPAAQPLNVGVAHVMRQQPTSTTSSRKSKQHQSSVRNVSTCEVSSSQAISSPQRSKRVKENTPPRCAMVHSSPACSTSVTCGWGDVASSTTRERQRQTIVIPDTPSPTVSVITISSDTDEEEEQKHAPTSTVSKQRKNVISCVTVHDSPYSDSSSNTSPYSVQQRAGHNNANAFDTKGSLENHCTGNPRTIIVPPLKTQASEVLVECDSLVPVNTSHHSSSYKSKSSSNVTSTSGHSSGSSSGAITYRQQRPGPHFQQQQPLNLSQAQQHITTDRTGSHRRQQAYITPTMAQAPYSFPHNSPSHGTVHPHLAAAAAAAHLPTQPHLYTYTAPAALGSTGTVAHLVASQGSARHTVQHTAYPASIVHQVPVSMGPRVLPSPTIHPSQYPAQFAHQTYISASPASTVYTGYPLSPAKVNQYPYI
T22 sequence (Q02750 whole entry): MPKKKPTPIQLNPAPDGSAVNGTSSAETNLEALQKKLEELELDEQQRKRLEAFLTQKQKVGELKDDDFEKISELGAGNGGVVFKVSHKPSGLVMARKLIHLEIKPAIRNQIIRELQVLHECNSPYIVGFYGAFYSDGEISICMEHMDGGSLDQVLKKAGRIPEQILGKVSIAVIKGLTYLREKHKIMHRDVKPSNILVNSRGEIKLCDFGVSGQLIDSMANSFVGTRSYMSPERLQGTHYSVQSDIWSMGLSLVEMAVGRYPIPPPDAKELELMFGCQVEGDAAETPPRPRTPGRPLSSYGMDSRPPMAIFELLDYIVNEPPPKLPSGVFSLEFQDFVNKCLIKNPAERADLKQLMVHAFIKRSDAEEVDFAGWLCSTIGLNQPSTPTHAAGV
T10 sequence (Q9NQU5 whole entry): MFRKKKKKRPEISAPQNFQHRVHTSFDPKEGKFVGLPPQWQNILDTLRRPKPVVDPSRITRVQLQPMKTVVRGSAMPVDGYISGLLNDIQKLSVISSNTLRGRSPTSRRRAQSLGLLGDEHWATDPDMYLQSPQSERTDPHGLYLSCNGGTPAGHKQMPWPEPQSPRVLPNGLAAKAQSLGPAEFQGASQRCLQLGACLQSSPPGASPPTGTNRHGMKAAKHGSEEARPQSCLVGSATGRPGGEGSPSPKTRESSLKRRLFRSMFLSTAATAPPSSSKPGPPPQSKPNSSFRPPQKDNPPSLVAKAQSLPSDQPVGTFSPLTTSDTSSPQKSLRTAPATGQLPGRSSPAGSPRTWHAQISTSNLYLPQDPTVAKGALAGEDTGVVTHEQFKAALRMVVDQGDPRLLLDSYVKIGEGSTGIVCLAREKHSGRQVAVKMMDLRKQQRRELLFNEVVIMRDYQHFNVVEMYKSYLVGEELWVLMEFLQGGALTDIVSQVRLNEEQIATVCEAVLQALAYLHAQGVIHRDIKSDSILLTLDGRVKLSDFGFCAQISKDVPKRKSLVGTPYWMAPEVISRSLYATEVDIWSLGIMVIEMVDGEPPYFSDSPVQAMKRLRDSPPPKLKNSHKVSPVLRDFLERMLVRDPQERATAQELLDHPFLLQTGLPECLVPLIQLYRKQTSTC
T4 sequence (P05771 1-673 isoform P05771-2): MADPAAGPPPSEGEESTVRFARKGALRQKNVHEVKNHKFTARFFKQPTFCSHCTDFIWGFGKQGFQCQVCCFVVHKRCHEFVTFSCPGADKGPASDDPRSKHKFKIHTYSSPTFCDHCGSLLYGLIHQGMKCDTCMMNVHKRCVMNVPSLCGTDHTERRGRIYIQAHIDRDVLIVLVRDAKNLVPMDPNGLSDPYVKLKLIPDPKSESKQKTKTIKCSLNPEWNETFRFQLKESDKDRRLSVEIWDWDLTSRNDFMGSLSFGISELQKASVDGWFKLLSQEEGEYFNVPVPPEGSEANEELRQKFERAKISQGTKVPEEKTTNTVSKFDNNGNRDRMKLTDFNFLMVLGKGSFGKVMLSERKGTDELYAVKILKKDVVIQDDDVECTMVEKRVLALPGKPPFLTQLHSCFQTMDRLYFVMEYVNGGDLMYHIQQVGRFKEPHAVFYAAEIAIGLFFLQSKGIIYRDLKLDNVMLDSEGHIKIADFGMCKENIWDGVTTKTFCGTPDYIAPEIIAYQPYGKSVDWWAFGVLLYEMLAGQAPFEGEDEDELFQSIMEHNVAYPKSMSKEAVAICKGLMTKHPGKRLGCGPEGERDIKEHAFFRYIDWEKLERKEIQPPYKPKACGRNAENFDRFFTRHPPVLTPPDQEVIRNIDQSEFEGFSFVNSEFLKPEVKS
T1 sequence (P04629 440-796 limits assumed): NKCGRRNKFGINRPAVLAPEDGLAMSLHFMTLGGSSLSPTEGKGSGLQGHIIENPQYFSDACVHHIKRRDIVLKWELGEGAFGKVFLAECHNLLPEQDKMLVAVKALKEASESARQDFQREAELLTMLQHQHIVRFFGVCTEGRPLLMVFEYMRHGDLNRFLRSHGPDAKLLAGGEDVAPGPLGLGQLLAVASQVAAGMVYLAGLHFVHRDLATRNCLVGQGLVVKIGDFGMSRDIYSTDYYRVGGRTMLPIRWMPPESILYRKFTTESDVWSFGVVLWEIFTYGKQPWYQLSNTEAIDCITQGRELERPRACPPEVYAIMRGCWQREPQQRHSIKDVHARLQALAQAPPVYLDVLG

IC50 [1]: < 100 nM
Avg. POC (DMPK): 105.5 POC
Avg. POC (CK1gamma2): 110 POC
Avg. POC (PKCbetaII): 106 POC
Avg. POC (HIPK2): 102 POC
Avg. POC (eEF-2K): 108 POC
Avg. POC (GSK3beta): 129 POC
Avg. POC (DAPK3): 103 POC
Avg. POC (Flt3): 110 POC
Avg. POC (PAK6): 102 POC
Avg. POC (ULK2): 109 POC
Avg. POC (PAK5): 105.5 POC
Avg. POC (GRK7): 96.5 POC
Avg. POC (BTK): 112.5 POC
Avg. POC (mTOR): 108 POC
Avg. POC (AKT3): 104 POC
Avg. POC (TLK2): 105 POC
Avg. POC (PKCtheta): 111.5 POC
Avg. POC (FGFR1): 102 POC
Avg. POC (AKT1): 109 POC
Avg. POC (IGF-1R Activated): 100 POC
Avg. POC (MEK1): 111 POC
Avg. POC (DCAMKL2): 126.5 POC
Avg. POC (MKK4_m): 113 POC
Avg. POC (Haspin): 93.5 POC
Avg. POC (EphA2): 107.5 POC
Avg. POC (SRC): 107 POC
Avg. POC (CDK7/cyclinH/MAT1): 101.5 POC
Avg. POC (GRK5): 108 POC
Avg. POC (LKB1): 105 POC
Avg. POC (VRK2): 117.5 POC
Avg. POC (PAK3): 219.5 POC
Avg. POC (ROCK-II): 122 POC
SMILES: COCCN1C[C@@H](NC(=O)Nc2c(-c3ccccc3)nc3c(C)nccn23)[C@H](c2ccc(F)c(F)c2)C1 [Example 20, 1-((3S,4R)-4-(3,4-difluorophenyl)-1-(2-methoxyethyl)pyrrolidin-3-yl)-3-(8-methyl-2-phenylimidazo[1,2-a]pyrazin-3-yl)urea]
